Results taken from article PMC7645423, “Chemical composition and biological effects of kratom (Mitragyna speciosa): In vitro studies with implications for efficacy and drug interactions” (Scientific Reports, 2020).
“Also recorded” adds a separate entry of the source.

Key:
human κ-opioid receptor = target: T1, human κ-opioid receptor (Homo sapiens, UniProt P41145); experiment: biochemical; assay type: binding
T1 construct: expressed in transfected cells

human δ-opioid receptor = target: T2, human δ-opioid receptor (Homo sapiens, UniProt P41143); experiment: Competitive radioligand binding, δ-opioid receptor; conditions: for Affinity at δ-opioid receptor (in words): competitive radioligand binding, HEK293; for Ki: competitive binding against 3H-deltorphin, HEK293 cell membranes, minimum of three replicates, read-out: Receptor binding affinity (Ki ± SEM, nM) δ-opioid
T2 construct: expressed in transfected cells

hMOR = hMOR (Homo sapiens, UniProt P35372); experiment: cell-based; assay type: cell-based; conditions: for Emax: CHO-K1, read-out: cAMP accumulation Emax %
µ-opioid receptor [1] = target: T3, µ-opioid receptor (Homo sapiens, UniProt P35372); assay type: cell-based
[2] = system: human µ-opioid receptor (hMOR); conditions: cited from earlier work
µ-opioid receptor [3] = target: T3, µ-opioid receptor; experiment: biochemical; assay type: binding; set-up: expressed in transfected cells
CYP3A = CYP3A (Homo sapiens, UniProt P08684); experiment: CYP inhibition in human liver microsomes, midazolam 1′-hydroxylation; conditions: for Inhibition of CYP3A activity (in words): human liver microsomes, extracts 2, 10, 20 µg/mL, alkaloids 1, 10, 100 µM
CYP2C9 = CYP2C9 (Homo sapiens, UniProt P11712); experiment: CYP inhibition in human liver microsomes, diclofenac 4′-hydroxylation; conditions: for Inhibition of CYP2C9 activity (in words): human liver microsomes, extracts 2, 10, 20 µg/mL, alkaloids 1, 10, 100 µM
CYP2D6 = CYP2D6 (Homo sapiens, UniProt P10635); experiment: CYP inhibition in human liver microsomes, dextromethorphan O-demethylation; conditions: for Inhibition of CYP2D6 activity (in words): human liver microsomes, extracts 2, 10, 20 µg/mL, alkaloids 1, 10, 100 µM
Sequence of CYP2D6 (P10635 whole entry): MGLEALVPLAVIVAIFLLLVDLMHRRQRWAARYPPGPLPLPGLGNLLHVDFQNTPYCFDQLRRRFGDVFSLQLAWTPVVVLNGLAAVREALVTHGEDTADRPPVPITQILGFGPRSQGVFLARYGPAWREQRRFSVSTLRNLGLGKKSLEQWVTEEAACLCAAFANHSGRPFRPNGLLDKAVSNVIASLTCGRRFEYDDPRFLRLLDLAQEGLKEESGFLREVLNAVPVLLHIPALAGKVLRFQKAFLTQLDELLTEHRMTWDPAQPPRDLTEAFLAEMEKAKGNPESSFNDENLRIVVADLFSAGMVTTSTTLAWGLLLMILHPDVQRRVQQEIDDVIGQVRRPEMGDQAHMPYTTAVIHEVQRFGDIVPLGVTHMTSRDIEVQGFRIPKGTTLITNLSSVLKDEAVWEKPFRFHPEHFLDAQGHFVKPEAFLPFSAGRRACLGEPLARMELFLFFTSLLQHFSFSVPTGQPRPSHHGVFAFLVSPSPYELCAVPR

T2 sequence (P41143 whole entry): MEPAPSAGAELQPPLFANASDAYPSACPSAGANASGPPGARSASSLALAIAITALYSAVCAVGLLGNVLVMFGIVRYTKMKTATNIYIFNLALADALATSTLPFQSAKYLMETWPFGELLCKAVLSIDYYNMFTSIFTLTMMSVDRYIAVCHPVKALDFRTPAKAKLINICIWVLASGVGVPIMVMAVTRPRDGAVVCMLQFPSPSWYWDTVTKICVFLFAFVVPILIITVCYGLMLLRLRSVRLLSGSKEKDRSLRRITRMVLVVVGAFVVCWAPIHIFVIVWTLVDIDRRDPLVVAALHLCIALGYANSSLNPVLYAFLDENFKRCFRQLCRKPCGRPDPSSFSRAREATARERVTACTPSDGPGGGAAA
Sequence of CYP3A (P08684 2-503): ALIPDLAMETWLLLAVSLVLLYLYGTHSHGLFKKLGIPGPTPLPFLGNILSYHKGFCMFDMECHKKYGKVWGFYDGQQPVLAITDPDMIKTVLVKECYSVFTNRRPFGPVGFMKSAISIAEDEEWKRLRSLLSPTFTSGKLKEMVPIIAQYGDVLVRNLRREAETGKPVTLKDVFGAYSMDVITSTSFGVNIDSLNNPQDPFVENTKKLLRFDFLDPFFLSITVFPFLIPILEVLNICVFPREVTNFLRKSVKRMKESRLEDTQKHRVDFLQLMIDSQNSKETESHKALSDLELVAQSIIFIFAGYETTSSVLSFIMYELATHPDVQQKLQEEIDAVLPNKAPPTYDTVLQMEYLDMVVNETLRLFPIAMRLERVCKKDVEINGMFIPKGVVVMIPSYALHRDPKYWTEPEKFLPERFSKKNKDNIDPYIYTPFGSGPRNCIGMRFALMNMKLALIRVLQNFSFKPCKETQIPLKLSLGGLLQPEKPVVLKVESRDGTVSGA
T1 sequence (P41145 whole entry): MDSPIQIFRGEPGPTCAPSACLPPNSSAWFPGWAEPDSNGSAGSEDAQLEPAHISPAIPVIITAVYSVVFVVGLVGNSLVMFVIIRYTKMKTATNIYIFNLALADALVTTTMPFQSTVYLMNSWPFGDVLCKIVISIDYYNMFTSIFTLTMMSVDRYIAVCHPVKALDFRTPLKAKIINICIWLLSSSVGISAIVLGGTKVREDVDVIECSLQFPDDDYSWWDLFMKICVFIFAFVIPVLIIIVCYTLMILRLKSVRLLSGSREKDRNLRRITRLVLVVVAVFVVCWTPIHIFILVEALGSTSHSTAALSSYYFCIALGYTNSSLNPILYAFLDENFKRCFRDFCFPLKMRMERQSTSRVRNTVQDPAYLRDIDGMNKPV
Sequence of CYP2C9 (P11712 whole entry): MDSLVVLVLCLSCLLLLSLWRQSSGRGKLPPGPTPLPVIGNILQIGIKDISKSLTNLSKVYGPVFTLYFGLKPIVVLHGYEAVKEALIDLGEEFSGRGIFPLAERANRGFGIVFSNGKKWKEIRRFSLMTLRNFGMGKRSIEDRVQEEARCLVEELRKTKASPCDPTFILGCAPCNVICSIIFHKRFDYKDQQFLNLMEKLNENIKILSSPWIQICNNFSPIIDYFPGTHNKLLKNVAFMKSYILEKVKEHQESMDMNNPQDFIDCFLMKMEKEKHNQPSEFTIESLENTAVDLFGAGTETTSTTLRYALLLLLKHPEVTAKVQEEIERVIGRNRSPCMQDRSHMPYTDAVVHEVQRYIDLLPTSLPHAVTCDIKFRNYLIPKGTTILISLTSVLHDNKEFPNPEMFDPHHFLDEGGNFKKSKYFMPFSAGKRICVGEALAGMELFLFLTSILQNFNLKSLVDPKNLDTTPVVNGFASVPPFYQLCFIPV
Sequence of hMOR (P35372 whole entry): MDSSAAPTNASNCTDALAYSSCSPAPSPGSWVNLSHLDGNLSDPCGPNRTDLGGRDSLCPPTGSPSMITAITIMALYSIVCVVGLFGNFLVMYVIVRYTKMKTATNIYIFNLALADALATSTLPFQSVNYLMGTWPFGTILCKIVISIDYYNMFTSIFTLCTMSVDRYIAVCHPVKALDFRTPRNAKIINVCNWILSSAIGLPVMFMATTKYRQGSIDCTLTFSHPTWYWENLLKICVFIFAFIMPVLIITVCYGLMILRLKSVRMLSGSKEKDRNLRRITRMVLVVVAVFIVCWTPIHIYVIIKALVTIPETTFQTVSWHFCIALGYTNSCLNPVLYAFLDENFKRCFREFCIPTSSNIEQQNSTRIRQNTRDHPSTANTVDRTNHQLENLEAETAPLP
T3 sequence (P35372 whole entry): as above

SMILES | Affinity at ƙ-opioid receptor (in words) (human κ-opioid receptor) | Affinity at δ-opioid receptor (in words) (human δ-opioid receptor) | Inhibition of forskolin-stimulated cAMP accumulation (in words) (hMOR) | β-arrestin-2 recruitment (in words) (µ-opioid receptor [1]) | Affinity at the μ-opioid receptor compared to mitragynine [2] | Affinity at µ-opioid receptor (in words) (µ-opioid receptor [3]) | Inhibition of CYP3A activity (in words) (CYP3A) | Inhibition of CYP2C9 activity (in words) (CYP2C9) | Inhibition of CYP2D6 activity (in words) (CYP2D6) | Emax (hMOR) [%] | Ki (human κ-opioid receptor) [µM] | Ki (human δ-opioid receptor) [nM] | IC50 at 2 min (CYP3A; human, microsomes, pH 7.4) [µM] | IC50 (CYP2C9) [µM] | IC50 (CYP2D6) [µM] | EC50 (hMOR) [µM] | Ki (µ-opioid receptor [3]) [µM]
CC[C@@H]1CN2CC[C@@]3(O)C(=Nc4cccc(OC)c43)[C@@H]2C[C@@H]1/C(=C\OC)C(=O)OC [7-Hydroxymitragynine, 7-hydroxymitragynine] | moderate affinity | moderate affinity | partially inhibit cAMP accumulation | fail to recruit β-arrestin-2 | approximately fivefold greater affinity | strong affinity | weak inhibitor; also recorded: concentration-dependent inhibition | weak inhibitor; also recorded: concentration-dependent inhibition | moderate inhibitor; also recorded: concentration-dependent inhibition |  |  |  |  |  |  |  | 
C[C@@H](NC(=O)[C@@H](N)Cc1ccc(O)cc1)C(=O)NCC(=O)N(C)[C@@H](Cc1ccccc1)C(=O)NCCO [DAMGO, reference compound] |  |  | fully inhibit cAMP accumulation | effectively recruit β-arrestin-2 |  |  |  |  |  | 86.2 ± 1.8 |  |  |  |  |  |  | 
CC[C@@H]1CN2CCc3c([nH]c4cccc(OC)c34)[C@@H]2C[C@@H]1/C(=C\OC)C(=O)OC [Mitragynine, mitragynine] | moderate affinity |  | partially inhibit cAMP accumulation | fail to recruit β-arrestin-2 |  | moderate affinity | concentration-dependent inhibition | concentration-dependent inhibition | stronger inhibition than speciofoline; also recorded: concentration-dependent inhibition |  | 0.482 ± 0.029 | > 10000 | 10 to 100 | 10 to 100 | ~1 |  | 
CC[C@@H]1CN2CC[C@]3(C(=O)Nc4cccc(O)c43)[C@H]2C[C@@H]1/C(=C\OC)C(=O)OC [Speciofoline, speciofoline] | did not exhibit appreciable affinity | did not exhibit appreciable affinity | has no effect | fail to recruit β-arrestin-2 |  | did not exhibit appreciable affinity | concentration-dependent inhibition | concentration-dependent inhibition | concentration-dependent inhibition | 12.2 ± 3.5 | > 10 | > 10000 |  |  |  | 4.24 ± 2.93 | > 10
